The source made the active and inactive calls. No cut-off for these calls is given here. Where only a bound is given, the exact number is not on record here.

The target of data set [1] is Vascular endothelial growth factor receptor 2 (Homo sapiens, UniProt P35968). Briefly: Inhibition of VEGFR2 phosphorylation in VEGF-induced HUVEC cells pretreated measured after overnight incubation by immunoblotting analysis. In kind it is cell-based. A general note: A western blot detects proteins with antibodies after separation by electrophoresis.
For data set [2], the system named is U-87 MG. Nature of the data set: Antiproliferative activity against human U-87MG cells incubated for 72 hrs under serum treatment by MTT assay. The following applies: U-87MG ATCC. Format: functional, cell-based. (In general: Tetrazolium dyes change colour on reduction, which living cells bring about.)
Data set [3] relates to HUVEC. Nature of the data set: Antiproliferative activity against HUVEC cells incubated for 72 hrs under serum treatment by MTT assay. The following applies: Homo sapiens. In kind it is functional, cell-based.
The test system of data set [4] is U-87 MG. Nature of the data set: Antiangiogenic activity against human U-87MG cells xenografted in mouse assessed as reduction in HIF1alpha expression at 10 mg/kg, ip treated every other day for 20 days by fluorescence microscopy. Format: functional, organism-based. The following applies: U-87MG ATCC, time 20.0 day. In general terms: Xenograft models place foreign cells or tissue in a host animal.

Data set [5] has as its system U-87 MG. Nature of the data set: Antiangiogenic activity against human U-87MG cells xenografted in mouse assessed as reduction in CD31 expression at 10 mg/kg, ip treated every other day for 20 days by Western blotting analysis. The conditions noted are these: 480 h, time 20 day. In kind it is functional, U-87MG ATCC.
Data set [6] relates to U-87 MG. Nature of the data set: Antitumor activity against human U-87MG cells xenografted in mouse assessed as reduction in tumor weight at 10 mg/kg, ip treated every other day for 20 days. In kind it is functional, organism-based. The following applies: U-87MG ATCC, time 20.0 day.
Data set [7] concerns U-87 MG. Nature of the data set: Antiproliferative activity against human U87MG cells incubated for 72 hrs under VEGF treatment by MTT assay. Format: functional, cell-based. The following applies: U-87MG ATCC.
Another data set relates to Mus musculus. Briefly: Toxicity in mouse assessed as change in body weight at 10 mg/kg, ip treated every other day for 20 days. The conditions noted are these: in vivo, 480 h, time 20 day. Format: organism-based.
In data set [8] the test system is HUVEC. Nature of the data set: Antiproliferative activity against HUVEC cells incubated for 72 hrs under VEGF treatment by MTT assay. In kind it is functional, cell-based. The following applies: Homo sapiens.
Data set [9] has as its system U-87 MG. Briefly: Antitumor activity against human U-87MG cells xenografted in mouse assessed as reduction in tumor size at 10 mg/kg, ip treated every other day for 20 days. In kind it is functional, organism-based. The following applies: U-87MG ATCC, time 20.0 day.
Data set [10] deals with U-87 MG. Briefly: Antiangiogenic activity against human U-87MG cells xenografted in mouse assessed as reduction in pVEGFR2 expression at 10 mg/kg, ip treated every other day for 20 days by Western blotting analysis. Format: functional, U-87MG ATCC. The following applies: 480 h, time 20 day.
Data set [11] concerns U-87 MG. Briefly: Antiangiogenic activity against human U-87MG cells xenografted in mouse assessed as reduction in Bcl-xl expression at 10 mg/kg, ip treated every other day for 20 days by Western blotting analysis. In kind it is functional, U-87MG ATCC. The conditions noted are these: 480 h, time 20 day.
The subject of data set [12] is U-87 MG. Nature of the data set: Antiangiogenic activity against human U-87MG cells xenografted in mouse assessed as reduction in vascular density at 10 mg/kg, ip treated every other day for 20 days by H& E staining analysis relative to control. Format: functional, U-87MG ATCC. The conditions noted are these: 480 h, time 20 day.

Vascular endothelial growth factor receptor 2, sequence (P35968 whole entry): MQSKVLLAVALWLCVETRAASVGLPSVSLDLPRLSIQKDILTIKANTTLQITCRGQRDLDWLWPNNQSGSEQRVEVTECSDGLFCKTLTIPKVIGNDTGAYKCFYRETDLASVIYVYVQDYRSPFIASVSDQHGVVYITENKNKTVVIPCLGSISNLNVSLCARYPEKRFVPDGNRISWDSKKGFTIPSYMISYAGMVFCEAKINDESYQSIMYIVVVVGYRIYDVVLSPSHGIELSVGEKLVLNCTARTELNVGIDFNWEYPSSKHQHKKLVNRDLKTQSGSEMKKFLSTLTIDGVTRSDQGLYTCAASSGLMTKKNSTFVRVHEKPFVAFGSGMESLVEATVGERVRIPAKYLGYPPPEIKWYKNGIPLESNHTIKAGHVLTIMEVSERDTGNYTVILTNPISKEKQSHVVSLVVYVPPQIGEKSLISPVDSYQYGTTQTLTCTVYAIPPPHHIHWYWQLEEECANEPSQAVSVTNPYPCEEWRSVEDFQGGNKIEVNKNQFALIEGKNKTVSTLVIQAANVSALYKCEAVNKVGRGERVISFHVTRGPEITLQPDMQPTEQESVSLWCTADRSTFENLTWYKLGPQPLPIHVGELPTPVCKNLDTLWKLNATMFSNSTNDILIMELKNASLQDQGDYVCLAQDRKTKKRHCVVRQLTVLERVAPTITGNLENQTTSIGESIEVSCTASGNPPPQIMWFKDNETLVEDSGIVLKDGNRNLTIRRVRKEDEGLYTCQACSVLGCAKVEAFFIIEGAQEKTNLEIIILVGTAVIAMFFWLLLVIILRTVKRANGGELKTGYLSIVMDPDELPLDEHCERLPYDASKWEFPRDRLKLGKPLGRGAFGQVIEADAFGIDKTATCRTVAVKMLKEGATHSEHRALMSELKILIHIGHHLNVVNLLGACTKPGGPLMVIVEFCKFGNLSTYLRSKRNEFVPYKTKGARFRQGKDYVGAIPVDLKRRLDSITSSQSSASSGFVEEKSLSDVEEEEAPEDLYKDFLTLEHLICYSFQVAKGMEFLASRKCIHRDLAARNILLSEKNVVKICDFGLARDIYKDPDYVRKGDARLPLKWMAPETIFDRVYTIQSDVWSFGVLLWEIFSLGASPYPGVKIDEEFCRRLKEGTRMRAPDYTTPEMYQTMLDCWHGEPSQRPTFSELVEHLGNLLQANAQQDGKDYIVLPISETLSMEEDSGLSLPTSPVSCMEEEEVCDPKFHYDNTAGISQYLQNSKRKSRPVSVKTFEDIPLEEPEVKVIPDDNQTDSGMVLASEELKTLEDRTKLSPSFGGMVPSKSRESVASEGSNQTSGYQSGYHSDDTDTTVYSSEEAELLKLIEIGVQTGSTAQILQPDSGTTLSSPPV

With `COc1ccc2[nH]c3c(c2c1)CN(C(=O)CN1CCOCC1)CCC3`, the IC50 in data set [1] was greater than 20 µM.
Take `COc1ccc2[nH]c3c(c2c1)CNCCC3`: the IC50 in data set [1] was greater than 20 µM.
For `COc1ccc2[nH]c3c(c2c1)CN(C(=O)Cc1ccccn1)CCC3`, the result with U-87 MG [2] and in the data set with HUVEC [3] was inactive. For the same molecule, the result with U-87 MG [4], in the data set with U-87 MG [6], in the data set on U-87 MG [7], in the data set with HUVEC [8] and with U-87 MG [9] was Active. Moreover, the inhibition in vivo at 10 mg/kg in the data set with U-87 MG [5] was 60%; in the data set on U-87 MG [10], 60%; in the data set on U-87 MG [11] it was 20%; in the data set on U-87 MG [12], 73%. In addition, the Activity entry with Mus musculus is “Non-Toxic”.
With `COc1ccc2[nH]c3c(c2c1)CN(C(=O)Cc1ccncc1)CCC3`, the IC50 in [1] was greater than 20 µM.
The same measure, in the same setting: under `COc1ccc2[nH]c3c(c2c1)CN(C(=O)Cc1ccccc1)CCC3` stands greater than 20 µM; under `COc1ccc2[nH]c3c(c2c1)CN(C(=O)CC(C)C)CCC3`, greater than 20 µM.

Broadly, the IC50 is the point on the concentration scale where inhibition reaches its midpoint. One may read the inhibition in vivo as how much of the control response was suppressed.
